We go through 42 compounds from patent US8859581B2, “Azaheterocyclic compounds as kinase inhibitors” (Merck Patent GmbH, priority 2005, dated 2014).

As usually defined, the melting point is the temperature, or range, at which the solid turns liquid.

Counter-ions that a name gives are not always drawn. Bounds are passed on as bounds.

The compound `COc1cccc(-c2c([Si](C)(C)C)[nH]c3ccnc(Cl)c23)c1` showed a melting point of 137 °C.
Consider `COc1cccc(-c2c([Si](C)(C)C)[nH]c3cc(Cl)ncc23)c1`, for which the melting point fell in the range of 179 to 179.5 °C.
With `c1ccc(CCCOc2cccc(-c3cc4c(Nc5cccnc5)ccnc4[nH]3)c2)cc1` (as salt: HCl) [Compound 22], the melting point is 166 to 167.5 °C.
`Fc1cccc(Nc2ccnc3[nH]c(-c4cccc(OCCCc5ccccc5)c4)cc23)c1` (as salt: HCl) [Compound 24] had a melting point of 210 to 211.5 °C.
`c1ccc(CCCOc2cccc(-c3cc4c(Nc5ccccn5)ccnc4[nH]3)c2)cc1` (as salt: HCl) [Compound 25] yielded a melting point of 175 to 176 °C.
Next, `Fc1ccccc1Nc1ccnc2[nH]c(-c3cccc(OCCCc4ccccc4)c3)cc12` (as salt: HCl) [Compound 26]: 155 to 156 °C; `COc1ccc(CNc2nccc3[nH]cc(-c4cccc(OC)c4)c23)cc1` (as salt: HCl) [Compound 42]: 226 to 227 °C; `COc1cccc(-c2c([Si](C)(C)C)n(CCCCN3C(=O)c4ccccc4C3=O)c3ccnc(Cl)c23)c1` (as salt: TFA): 183 to 184 °C.
Next, `COc1ccc(-c2cc3c(N(C(=O)c4ccc(F)c(Cl)c4)C(=O)c4ccc(F)c(Cl)c4)ccnc3[nH]2)cc1` (as salt: TFA) [Compound 33]: 142 to 144 °C; `COc1ccc(-c2cc3c(NC(=O)Nc4ccc(Cl)c(C(F)(F)F)c4)ccnc3[nH]2)cc1` (as salt: TFA) [Compound 34]: 141 to 142 °C.
The compound `C=CCNc1ccnc2[nH]c(-c3ccc(OC)cc3)cc12` (as salt: TFA) [Compound 35] registered a melting point of 189.5 to 190 °C.
The compound `COc1ccc(CNc2ccn(CCCCN)c3nc(-c4ccc(OC)cc4)cc2-3)cc1` (as salt: TFA) [Compound 36] had a melting point of 127 to 127.5 °C.
In turn, `COc1cccc(-c2cn(CCCCN)c3ccnc(N)c23)c1` (as salt: TFA) [Compound 47] gave a melting point of 50 °C.
For `COc1ccc(CNc2nccc3[nH]c(-c4cccc(OCc5ccccc5)c4)cc23)cc1` (as salt: TFA) [Compound 48] the value was 130 to 131 °C.
`COc1cccc(-c2cn(CCCN3C(=O)c4ccccc4C3=O)c3ccnc(Cl)c23)c1` (as salt: TFA) [Compound 49] displayed a melting point of 129 to 130 °C.
In the case of `COc1cccc(-c2cn(CCN3C(=O)c4ccccc4C3=O)c3ccnc(Cl)c23)c1` (as salt: TFA) [Compound 51], the melting point is 130 °C (dec.).
The compound `COc1cccc(-c2cn(CCCCN3C(=O)c4ccccc4C3=O)c3ccnc(N)c23)c1` (as salt: TFA) [Compound 55] showed a melting point of 188 to 189 °C.
As for `COc1cc(-c2cc3c(Nc4cccnc4)ccnc3[nH]2)cc(OC)c1OC` (as salt: hydrochloride) (hydrate or solvate) [Compound 2], the melting point is 202 to 203 °C.
Turning to `COc1ccc(Nc2ccnc3[nH]c(-c4cc(OC)c(OC)c(OC)c4)cc23)cc1N1CCN(C)CC1` (as salt: hydrochloride) (hydrate or solvate) [Compound 3], the melting point lay within 78 to 80 °C.
`COc1cc(-c2cc3c(Nc4cnccn4)ccnc3[nH]2)cc(OC)c1OC` (as salt: hydrochloride) (hydrate or solvate) [Compound 7] gave a melting point of 292 to 294 °C.
`COc1cc(-c2cc3c(NCc4cccnc4)ccnc3[nH]2)cc(OC)c1OC` (as salt: hydrochloride) (hydrate or solvate) [Compound 8] registered a melting point of 181.5 to 183 °C.
Next, `COc1cc(-c2cc3c(NCCc4cccnc4)ccnc3[nH]2)cc(OC)c1OC` (as salt: hydrochloride) (hydrate or solvate) [Compound 9]: 105.5 to 106.5 °C.
`COc1cc(-c2cc3c(NCCc4ccccn4)ccnc3[nH]2)cc(OC)c1OC` (as salt: hydrochloride) (hydrate or solvate) [Compound 10] showed a melting point of 153 to 154 °C.
As for `COc1cc(-c2cc3c(Nc4cccc(C#N)c4)ccnc3[nH]2)cc(OC)c1OC` (as salt: hydrochloride) (hydrate or solvate) [Compound 11], the melting point was in the range of 291 to 292.5 °C.
Next, `COc1cccc(-c2cc3c(NCCCN(C)C)ccnc3[nH]2)c1` (as salt: hydrochloride) (hydrate or solvate) [Compound 15]: 257 to 258 °C; `C#CCCCCNc1ccnc2[nH]c(-c3ccc(OC)cc3)cc12` (as salt: hydrochloride) (hydrate or solvate) [Compound 20]: 118 to 120 °C.
For `COc1cc(-c2cc3c(Nc4cnc5ccccc5c4)ccnc3[nH]2)cc(OC)c1OC` (as salt: hydrochloride) [Compound 1, quinolin-3-yl-[2-(3,4,5-trimethoxyphenyl)-1H-pyrrolo[2,3b]pyridin-4-yl]amine] the value was 227 to 228.5 °C; for `COc1cc(-c2cc3c(Nc4ccc(F)c(Cl)c4)ccnc3[nH]2)cc(OC)c1OC` (as salt: hydrochloride) [Compound 5], 267.5 to 269 °C.
`COc1cccc(-c2cc3c(Nc4ccc(F)c(Cl)c4)ccnc3[nH]2)c1` (as salt: hydrochloride) [Compound 6] registered a melting point of 164 to 165 °C.
For `COc1cccc(-c2cc3c(NCCCn4ccnc4)ccnc3[nH]2)c1` (as salt: hydrochloride) [Compound 12] the value was 161 to 162 °C.
`COc1cccc(-c2cc3c(NCc4ccccc4)ccnc3[nH]2)c1` (as salt: hydrochloride) [Compound 14] yielded a melting point of 117 to 119 °C.
For `COc1ccc(CNc2ccnc3[nH]c(-c4ccc(OC)cc4)cc23)cc1` (as salt: hydrochloride) [Compound 16] the value was 196 to 197 °C.
Consider `COc1cccc(-c2cc3c(NCCn4cccc4)ccnc3[nH]2)c1` (as salt: hydrochloride) [Compound 17], for which the melting point fell in the range of 218 to 219 °C.
`COc1ccc(CNc2ccnc3[nH]c(-c4cccc(OCCCc5ccccc5)c4)cc23)cc1` [Compound 23]: the melting point fell in the range of 164 to 165 °C.
As to `c1ccc(CCCOc2cccc(-c3cc4cccnc4[nH]3)c2)cc1` [Compound 30], the melting point was 128 to 129 °C.
Take `COc1ccc(CNc2ccnc3[nH]c(-c4cccc(OCc5ccccc5)c4)cc23)cc1` [Compound 32]: the melting point lay in the range of 218 to 219 °C.
`COc1cccc(-c2c[nH]c3ccnc(Cl)c23)c1` [Compound 46] showed a melting point of 159.5 to 160 °C.
For the compound `COc1cccc(-c2cn(CCCNC(=O)c3ccccc3C(=O)O)c3ccnc(Cl)c23)c1` [Compound 50], the melting point lay in the range of 122 to 124 °C.
`COc1cccc(-c2c[nH]c3ccnc(Nc4ccccn4)c23)c1` [Compound 53] came in with a melting point of more than 299 °C.
Take `Clc1nccc2[nH]cc(-c3cccc(OCc4ccccc4)c3)c12` [Compound 56]: the melting point fell in the range of 156 to 158 °C.
As to `COc1cccc(-c2c[nH]c3ccnc(NCc4cccnc4)c23)c1` [Compound 62], the melting point is 80 °C (dec.).
Next, `COc1cccc(-c2c[nH]c3ccnc(Nc4cccnc4)c23)c1` [Compound 63]: 177 to 178 °C.
